This note sets out measurements from patent publication US10865218B2, “Fluoride fluorescence probe” (The Procter & Gamble Company, priority 2017, dated 2020).

Series [1] is described as follows: Fluoride ion sensing: fluorescence and absorption spectra of the probes with NaF. Particulars: probe alone, before F^−. The series is classed as physicochemical. The protocol: The procedure for fluoride ion sensing is described. Stock solutions of inventive compounds R1-R3 (1 mM) are prepared in DMSO. The test solutions of the inventive compounds R1-R3 (10 μM) in […] DMSO-HEPES solution (3/2, v/v, 10 mM HEPES, pH=7.2) are prepared by placing stock solutions in 10-mL volumetric flask, and diluting with buffer solution. The resulting solutions are shaken well and incubated at room temperature for 50 minutes before recording the spectra.
Sodium fluoride (NaF) is used as a fluoride source for the fluoride ion sensing test. Stock solution of NaF (1 mM) is prepared in deionized water. The test solutions of the inventive compounds R1-R3 (10 μM) with NaF (500 μM) are prepared by placing stock solutions in 10-mL volumetric flask, and diluting with buffer solution. The resulting solutions are shaken well and incubated at room temperature for 50 minutes before recording the spectra.
UV-visible spectra are recorded on a Shimadzu UV-2550 spectrometer. Steady-state emission experiments at room temperature are measured on an Edinburgh instrument FLS-920 spectrometer with a Xe lamp as an excitation source. Unless otherwise noted, for all measurements, the excitation wavelength is 620 nm and the emission wavelength is collected from 640 to 780 nm.
The color changed from colorless to blue, which can be visible by naked eyes. The reaction mechanism is further confirmed by HR-MS analysis in aqueous solution. After treated with NaF, a new peak is appeared in the solution with almost the same HR-MS data for the three compounds (R1: 284.1214; R2: 284.1202; R3: 284.1209), which is nearly identical to the theoretical molecular mass of the MB ([M−Cl^−]^+=284.1216).

The nature of series [2]: Fluorescence intensity change with pH variation. Type of series: physicochemical. Particulars: 10 μM, before NaF. The text has this: Fluorescence change of inventive compound R3 before/after treated with NaF under different pH levels are described.

As to `CN(C)c1ccc2c(c1)Sc1cc(N(C)C)ccc1N2C(=O)OCc1ccc(O[Si](c2ccccc2)(c2ccccc2)C(C)(C)C)cc1` [Compound R1, 4-((tert-butyldiphenylsilyl)oxy)benzyl 3,7-bis(dimethylamino)-10H-phenothiazine-10-carboxylate], the “absorption and emission in visible range” value in series [1] is “no absorption and emission in visible range”.

As for `CC(C)[Si](Oc1ccc(COC(=O)N2c3ccc(N(C)C)cc3Sc3cc(N(C)C)ccc32)cc1)(C(C)C)C(C)C` [Compound R2, 4-((triisopropylsilyl)oxy)benzyl 3,7-bis(dimethylamino)-10H-phenothiazine-10-carboxylate], in series [1], the “absorption and emission in visible range” value is “no absorption and emission in visible range”.

For `CN(C)c1ccc2c(c1)Sc1cc(N(C)C)ccc1N2C(=O)OCc1ccc(O[Si](C)(C)C(C)(C)C)cc1` [Compound R3, 4-((tert-butyldimethylsilyl)oxy)benzyl 3,7-bis(dimethylamino)-10H-phenothiazine-10-carboxylate], in series [1], the “absorption and emission in visible range” value was “no absorption and emission in visible range”. Besides, the “pH range in which the compound remains stable” value in series [2] was 2-12.
